Laboratory results reported in patent US11254705B2, “Cyclic peptide analogs and conjugates thereof” (Sirenas LLC, priority 2016, dated 2022).

Experiments:
HCC1954 cells = test: Inhibition of HCC1954 cell growth (method analogous to BT-474); type: cell-based; settings: Homo sapiens
Protocol: (§1) BT-474 human mammary gland ductal carcinoma cells were seeded in a clear polystyrene 96-well microculture plate (Corning® Costar® 96-well flat bottom plate, Cat. #3997) in a total volume of 90 μL/well. After 24 hours of incubation in a humidified incubator at 37° C. with 5% CO2 and 95% air, 10 μL of 10×, serially diluted test agents in growth medium were added to each well (10 pt dose response curve, highest concentration 10 μM of test agent). After 72 hours of culture in a humidified incubator at 37° C., in an atmosphere of 5% CO2 and 95% air, the plated cells and Cell Titer-Glo® (Protnega G7571) reagents were brought to room temperature to equilibrate for 30 minutes. 100 μL of Cell Titer-Glo® reagent was added to each well. The plate was shaken for two minutes and then left to equilibrate for ten minutes. The media/Cell Titer-Glo® reagent was transferred to a white polystyrene 96-well microculture plate (Corning® Costar® 96-well flat bottom plate, Cat. #3917) before reading luminescence on a Tecan GENios microplate reader.
(§2) Percent inhibition of cell growth was calculated relative to untreated control wells. The IC50 value for the test agents was determined using Prism 6.05 by curve-fitting of the data using the following four parameter-logistic equation:
(§3) [formula] where Top is the maximal % of control absorbance, Bottom is the minimal % of control absorbance at the highest agent concentration, Y is the % of control absorbance, X is the agent concentration, IC50 is the concentration of agent that inhibits cell growth by 50% compared to the control cells, and n is the slope of the curve.
Inhibitory response of test compounds against HCC1954 cells was determined using a method analogous to that used for BT-474 cells.

[1] = system: BT-474 human mammary gland ductal carcinoma cells; test: Inhibition of BT-474 cell growth (Cell Titer-Glo, 72 h); type: cell-based; settings: BT-474 cells, 72 hours of culture, Cell Titer-Glo luminescence
Protocol: as §1, §2
as §3, with “curve. […]” for “curve.”

Structure (SMILES)	IC50 (HCC1954 cells)	IC50 [1]
C/C=C(\C)[C@H]1OC(=O)[C@@H](C)NC(=O)[C@H]([C@H](C)CC)NC(=O)CN(C)C(=O)[C@@H](Cc2ccccc2)N(C)C(=O)[C@H](C)NC(=O)[C@@H](CC(C)C)OC(=O)/C(C)=C/C[C@H](OC(=O)NCCCCCCCCO)[C@@H]1C [Compound 6, (2R,5S,8R,14S,17R,20S,21S,22S,E)-8-benzyl-20-((E)-but-2-en-2-yl)-14-((R)-sec-butyl)-2-isobutyl-5,7,10,17,21,25-hexamethyl-3,6,9,12,15,18,26-heptaoxo-1,19-dioxa-4,7,10,13,16-pentaazacyclohexacos-24-en-22-yl (8-hydroxyoctyl)carbamate]	1.66 nM	0.93 nM
C/C=C(\C)[C@H]1OC(=O)[C@@H](C)NC(=O)[C@H]([C@H](C)CC)NC(=O)CN(C)C(=O)[C@@H](Cc2ccccc2)N(C)C(=O)[C@H](C)NC(=O)[C@@H](CC(C)C)OC(=O)/C(C)=C/C[C@H](OC(=O)N(C)CCCCCCNC)[C@@H]1C [Compound 8, (2R,5S,8R,14S,17R,20S,21S,22S,E)-8-benzyl-20-((E)-but-2-en-2-yl)-14-((R)-sec-butyl)-2-isobutyl-5,7,10,17,21,25-hexamethyl-3,6,9,12,15,18,26-heptaoxo-1,19-dioxa-4,7,10,13,16-pentaazacyclohexacos-24-en-22-yl methyl(6-(methylamino)hexyl)carbamate]	31.9 nM	8.66 nM
C/C=C(\C)[C@H]1OC(=O)[C@@H](C)NC(=O)[C@H]([C@H](C)CC)NC(=O)CN(C)C(=O)[C@@H](Cc2ccccc2)N(C)C(=O)[C@H](C)NC(=O)[C@@H](CC(C)C)OC(=O)/C(C)=C/C[C@H](OC(=O)N2CCN(CCO)CC2)[C@@H]1C [Compound 9, (2R,5S,8R,14S,17R,20S,21S,22S,E)-8-benzyl-20-((E)-but-2-en-2-yl)-14-((R)-sec-butyl)-2-isobutyl-5,7,10,17,21,25-hexamethyl-3,6,9,12,15,18,26-heptaoxo-1,19-dioxa-4,7,10,13,16-pentaazacyclohexacos-24-en-22-yl-4-(2-hydroxyethyl)piperazine-1-carboxylate]	0.25 nM	0.15 nM
C/C=C(\C)[C@H]1OC(=O)[C@@H](C)NC(=O)[C@H](C(C)CC)NC(=O)CN(C)C(=O)[C@@H](Cc2ccccc2)N(C)C(=O)[C@H](C)NC(=O)[C@@H](CC(C)C)OC(=O)/C(C)=C/C[C@H](OC(=O)NCCOCCO)[C@@H]1C (stereo partly drawn) [Compound 11, (2R,5S,8R,14S,17R,20S,21S,22S,E)-8-benzyl-20-((E)-but-2-en-2-yl)-14-((R)-see-butyl)-2-isobutyl-5,7,10,17,21,25-hexamethyl-3,6,9,12,15,18,26-heptaoxo-1,19-dioxa-4,7,10,13,16-pentaazacyclohexacos-24-en-22-yl (2-(2-hydroxyethoxy)ethyl)carbamate]	1.64 nM	1 nM
C/C=C(\C)[C@H]1OC(=O)[C@@H](C)NC(=O)[C@H]([C@H](C)CC)NC(=O)CN(C)C(=O)[C@@H](Cc2ccc(Cl)cc2)N(C)C(=O)[C@H](C)NC(=O)[C@@H](CC(C)C)OC(=O)/C(C)=C/C[C@H](O)[C@@H]1C [Compound 15, (3R,6S,12R,15S,18R,24S,25S,26S,E)-26-((E)-but-2-en-2-yl)-6-((R)-sec-butyl)-12-(4-chlorobenzyl)-24-hydroxy-18-isobutyl-3,10,13,15,21,25-hexamethyl-1,19-dioxa-4,7,10,13,16-pentaazacyclohexacos-21-ene-2,5,8,11,14,17,20-heptaone]	4.37 nM	2.62 nM
